Measured values taken from patent US11312705B2, “Heteroaryl[4,3-C]pyrimidine-5-amine derivative, preparation method therefor, and medical uses thereof” (Jiangsu Hengrui Medicine Co., Ltd., priority 2017, dated 2022).

Columns and labels:
Format in all cases: cell-based
[1] = target: adenosine A2a receptor (A2aR) (Homo sapiens (Human), UniProt P29274); test: Inhibition of adenosine A2a receptor cAMP signaling pathway (HTRF cAMP, CHO-K1/A2aR cells)
In short: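 CHO-K1 cells expressing human A2aR, preincubated 30 min at room temperature with compound (10000–0.001024 nM final) in HEPES/BSA buffer with rolipram and adenosine deaminase, then stimulated 30 min with […] (20 nM final). Intracellular cAMP read by HTRF after 1 h lysis/detection.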

[2] = target: adenosine A1 receptor (A1R) (Homo sapiens (Human), UniProt P30542); test: Inhibition of adenosine A1 receptor cAMP signaling pathway (HTRF cAMP, CHO-K1/A1R cells); conditions: Table 2; for IC50: CHO-K1/A1R cells, forskolin 10 μM, CPA 10 nM, cAMP HTRF; for IC50 ratio (A1R/A2aR): selectivity A1R over A2aR
adenosine A1 receptor (A1R), sequence (P30542 whole entry): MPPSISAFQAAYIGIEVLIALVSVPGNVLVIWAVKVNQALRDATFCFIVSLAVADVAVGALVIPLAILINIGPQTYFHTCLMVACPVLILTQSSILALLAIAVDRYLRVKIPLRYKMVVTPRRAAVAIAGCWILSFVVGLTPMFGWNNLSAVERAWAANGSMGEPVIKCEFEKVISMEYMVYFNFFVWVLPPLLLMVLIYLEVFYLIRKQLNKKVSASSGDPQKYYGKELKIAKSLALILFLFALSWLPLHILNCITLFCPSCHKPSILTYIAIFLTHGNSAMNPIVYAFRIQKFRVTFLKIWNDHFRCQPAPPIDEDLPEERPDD
From the text: Test Example 1. Determination of the inhibition activity of the compounds of the present invention on the adenosine A2a receptor (A2aR) cAMP signaling pathway, the adenosine A2b receptor (A2bR) cAMP signaling pathway, the adenosine A1 receptor (A1R) cAMP signaling pathway and the adenosine A3 receptor (A3R) cAMP signaling pathway.
The inhibition activity of the compounds of the present invention on the adenosine A2a receptor cAMP signaling pathway, the adenosine A2b receptor cAMP signaling pathway, the adenosine A1 receptor cAMP signaling pathway and the adenosine A3 receptor cAMP signaling pathway was determined by the following method. The experimental method is briefly described as follows:
2.2 Adenosine A1 receptor
CHO-K1/A1R cells were cultured in DMEM/F12 medium containing 10% fetal bovine serum and 1 mg/ml G418. The cells were digested with the cell separation buffer during the experiment. The cells were then resuspended in the balanced salt buffer containing 20 mM HEPES and 0.1% bovine serum albumin and counted, and the cell density was adjusted to 5×10^5 cells/ml. In the 384-well plate, each well was added with 12.5 μl of cell suspension, and 6.25 μl of test compound (4× concentration) formulated with the balanced salt buffer containing 20 mM HEPES, 0.1% bovine serum albumin, 54 μM rolipram and 2.7 U/ml adenosine deaminase, and the plate was incubated at room temperature for 30 minutes. Each well was then added with 6.25 μl of forskolin and N6-cyclopentyladenosine (4× concentration) formulated with the balanced salt buffer containing 20 mM HEPES, 0.1% bovine serum albumin, 54 μM rolipram and 2.7 U/ml adenosine deaminase, and the plate was incubated at room temperature for 30 minutes. The final concentrations of the compounds were: 100000, 10000, 1000, 100, 10, 1, 0.1 and 0 nM. The final concentration of forskolin was 10 μM. The final concentration of CPA was 10 nM. Intracellular cAMP concentration was detected with the cAMP dynamic 2 kit. cAMP-d2 and Anti-cAMP-Eu-Cryptate were diluted respectively with the cAMP lysis buffer at a ratio of 1:4. Each well was added with 12.5 μl of diluted cAMP-d2, followed by addition of 12.5 μl of diluted Anti-cAMP-Eu-Cryptate, and the plate was incubated at room temperature in the dark for 1 hour. The HTRF signal values were read by the PHERAstar multi-function microplate reader.

[3] = target: adenosine A2b receptor (A2bR) (Homo sapiens (Human), UniProt P29275); test: Inhibition of adenosine A2b receptor cAMP signaling pathway (HTRF cAMP, CHO-K1/A2bR cells); conditions: Table 3; for IC50: CHO-K1/A2bR cells, ethyl carbazole 1 μM, cAMP HTRF
adenosine A2b receptor (A2bR), sequence (P29275 whole entry): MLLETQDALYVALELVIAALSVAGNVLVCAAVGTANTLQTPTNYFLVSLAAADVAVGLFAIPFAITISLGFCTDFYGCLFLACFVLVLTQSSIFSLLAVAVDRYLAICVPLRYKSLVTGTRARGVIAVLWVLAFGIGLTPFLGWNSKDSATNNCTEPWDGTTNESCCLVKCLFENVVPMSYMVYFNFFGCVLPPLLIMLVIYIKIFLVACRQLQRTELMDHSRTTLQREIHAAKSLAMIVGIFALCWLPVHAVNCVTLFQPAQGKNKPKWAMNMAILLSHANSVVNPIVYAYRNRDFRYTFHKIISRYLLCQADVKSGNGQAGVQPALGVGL
In short: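 CHO-K1 cells expressing human A2bR were preincubated with compound (0-100000 nM final) for 30 min at room temperature in HEPES/BSA buffer with rolipram and adenosine deaminase. They were then stimulated with 1 μM […] for 30 min. Intracellular cAMP was measured by HTRF after 1 h detection.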

adenosine A2a receptor (A2aR), sequence (P29274 whole entry): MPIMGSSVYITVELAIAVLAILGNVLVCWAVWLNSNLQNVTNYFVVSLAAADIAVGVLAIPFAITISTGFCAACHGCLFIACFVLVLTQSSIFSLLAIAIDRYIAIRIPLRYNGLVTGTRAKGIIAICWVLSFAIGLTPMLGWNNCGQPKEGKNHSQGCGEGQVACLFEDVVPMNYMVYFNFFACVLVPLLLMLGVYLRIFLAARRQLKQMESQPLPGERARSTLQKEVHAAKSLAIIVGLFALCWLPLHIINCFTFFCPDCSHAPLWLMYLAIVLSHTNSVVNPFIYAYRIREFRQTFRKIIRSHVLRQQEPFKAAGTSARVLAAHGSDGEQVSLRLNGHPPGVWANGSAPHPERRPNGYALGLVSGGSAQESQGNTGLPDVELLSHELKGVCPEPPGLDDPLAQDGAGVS

Cc1cc(-c2c(-c3ccc(F)cc3F)nc(N)n3cnnc23)cc(C(F)(F)F)n1 [Example 18, 7-(2,4-Difluorophenyl)-8-(2-methyl-6-(trifluoromethyl)pyridin-4-yl)-[1,2,4]triazolo[4,3-c]pyrimidin-5-amine]
IC50 ([1]; Table 1, ethyl carbazole 20 nM): 3.96 nM
IC50 ([1]; Table 2, ethyl carbazole 20 nM): 3.96 nM
IC50 ([1]; Table 3, ethyl carbazole 20 nM): 0.75 nM
IC50 [2]: 409 nM
IC50 ratio (A1R/A2aR) [2]: 103
IC50 [3]: 793 nM

Cc1cc(-c2c(-c3ccc(F)cc3F)nc(N)n3cnnc23)cc(C(F)F)n1 [Example 20, 8-(2-(Difluoromethyl)-6-methylpyridin-4-yl)-7-(2,4-difluorophenyl)-[1,2,4]triazolo[4,3-c]pyrimidin-5-amine]
IC50 ([1]; Table 1, ethyl carbazole 20 nM): 2.33 nM
IC50 ([1]; Table 2, ethyl carbazole 20 nM): 2.33 nM
IC50 ([1]; Table 3, ethyl carbazole 20 nM): 2.33 nM
IC50 [2]: 519 nM
IC50 ratio (A1R/A2aR) [2]: 223
IC50 [3]: 522 nM
IC50 ratio (A2bR/A2aR) ([3]; selectivity A2bR over A2aR): 224
